# Patent US20240016942A1, “STAT DEGRADERS AND USES THEREOF” (Kymera Therapeutics, Inc., priority 2020, published 2024)
# Target: T1, STAT3 (Homo sapiens, UniProt P40763)
# T1 construct: expressed in transfected cells; host or cells: A549
# Test: STAT3 HiBiT degradation assay (Nano-Glo HiBiT lytic detection) in transfected A549 cells
# Type: cell-based
# Conditions: 24 h compound incubation, read-out: STAT3 HiBIT A549 degradation 24 h: Average external-Abs DC50
# Description: Example 1. HiBiT Assay Protocol
# Compound preparation and Cell seeding: The transfected A549 cells were harvested from dish into cell culture medium and cell numbers counted. Cells were diluted with culture medium to the desired density and 30 μL of cell suspension (about 2000 cells/well) were added into each well of a 384-well cell culture plate as designated and transferred into 37° C. 5% CO2 incubator for 24 h. Compounds were dissolved to 10 mM stock solution and 12 μL of the stock solution was transferred to a 384 LDV-plate. 3 fold, 10-point dilution was performed by transferring 4 μL compound into 8 μL DMSO using a TECAN (EVO200) liquid handler. 30 μl of diluted compound from compound source plate was transferred into the cell plate as designated by using Echo550 and transferred into 37° C. 5% CO2 incubator for 24 h.
# Detection: Plates were removed from incubators and equilibrated at room temperature for 15 minutes. Nano-Glo Hibit Lytic Detection reagent (Promega Cat #N3040) was thawed and equilibrated to room temperature before the experiment. 30 μL of Nano-Glo Hibit Lytic Detection reagent was added into each well to be detected. The plates were held at room temperature for 10 min followed by reading on EnSpire.
# Data analysis: The remaining activity was calculated following the formula: Remaining Activity (%)=100%×(Lumsample−LumNC)/(LumPC−LumNC). Calculate the IC50 by fitting the curve using Xlfit (v5.3.1.3), equation 201: fit=(A+((B−A)/(1+((x/C)^D)))); A: Botton; B: Top; C: IC50; and D: Slope.
# The letter codes for STAT3 DC50 include: A (<0.01 μM), B (0.01-0.1 μM), C (0.1-1.0 μM), and D (>1.0 μM).
# T1 sequence (P40763 whole entry): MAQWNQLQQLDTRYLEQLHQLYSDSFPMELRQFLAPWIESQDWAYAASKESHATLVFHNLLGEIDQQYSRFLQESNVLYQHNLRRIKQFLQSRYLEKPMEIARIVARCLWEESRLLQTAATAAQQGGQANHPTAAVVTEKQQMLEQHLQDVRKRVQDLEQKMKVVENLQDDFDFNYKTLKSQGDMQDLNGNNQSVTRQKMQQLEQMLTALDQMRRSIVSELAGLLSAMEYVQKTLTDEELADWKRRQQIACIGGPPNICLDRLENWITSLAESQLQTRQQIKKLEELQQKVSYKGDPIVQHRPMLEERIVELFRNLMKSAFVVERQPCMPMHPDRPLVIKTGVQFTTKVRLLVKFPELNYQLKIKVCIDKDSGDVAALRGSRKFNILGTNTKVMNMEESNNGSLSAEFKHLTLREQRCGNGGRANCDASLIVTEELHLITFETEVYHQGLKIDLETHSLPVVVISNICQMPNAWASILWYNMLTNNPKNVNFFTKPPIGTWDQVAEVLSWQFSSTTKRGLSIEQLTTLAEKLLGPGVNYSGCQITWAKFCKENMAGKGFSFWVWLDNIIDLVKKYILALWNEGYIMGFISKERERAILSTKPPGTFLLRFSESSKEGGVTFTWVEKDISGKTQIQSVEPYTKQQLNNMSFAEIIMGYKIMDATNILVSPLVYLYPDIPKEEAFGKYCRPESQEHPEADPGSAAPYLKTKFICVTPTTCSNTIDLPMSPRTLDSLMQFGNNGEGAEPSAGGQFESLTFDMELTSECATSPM
row,Compound,DC50
1,Cn1c(=O)n(C2CCC(=O)NC2=O)c2ccc(C[C@H]3CC[C@@H](CC(=O)N4CC[C@H]5CC[C@@H](C(=O)NC(C)(C)CCC(N)=O)N5C(=O)[C@@H](NC(=O)c5cc6cc(C(=O)P(=O)(O)O)ccc6[nH]5)C4)CC3)cc21 (some centres unmarked) [I-26],> 1000 nM
2,Cn1c(=O)n(C2CCC(=O)NC2=O)c2ccc(CCCc3cccc(OC[C@H](CCC(N)=O)NC(=O)[C@@H]4CC[C@@H]5CCCC[C@H](NC(=O)c6cc7cc(C(=O)P(=O)(O)O)ccc7[nH]6)C(=O)N54)c3Cl)cc21 (some centres unmarked) [I-27],> 1000 nM
3,Cn1c(=O)n(C2CCC(=O)NC2=O)c2ccc(CCCCCc3cccc(OC[C@H](CCC(N)=O)NC(=O)[C@@H]4CC[C@@H]5CCCC[C@H](NC(=O)c6cc7cc(C(=O)P(=O)(O)O)ccc7[nH]6)C(=O)N54)c3Cl)cc21 (some centres unmarked) [I-28],100 to 1000 nM
4,Cn1c(=O)n(C2CCC(=O)NC2=O)c2ccc(C[C@H]3CC[C@@H](CC(=O)N4CC[C@H]5CC[C@@H](C(=O)NC6(CCC(N)=O)CCCC6)N5C(=O)[C@@H](NC(=O)c5cc6cc(C(=O)P(=O)(O)O)ccc6[nH]5)C4)CC3)cc21 (some centres unmarked) [I-29],> 1000 nM
5,CC(C)c1ccc(CNC(=O)[C@H](CCC(N)=O)NC(=O)[C@@H]2CC[C@@H]3CCN(C(=O)[C@H]4CC[C@@H](CCc5ccc6c(c5)n(C)c(=O)n6C5CCC(=O)NC5=O)CC4)C[C@H](NC(=O)c4cc5cc(C(=O)P(=O)(O)O)ccc5[nH]4)C(=O)N32)cc1F (some centres unmarked) [I-30],10 to 100 nM
6,Cn1c(=O)n(C2CCC(=O)NC2=O)c2ccc(C[C@H]3CC[C@@H](CC(=O)N4CC[C@H]5CC[C@@H](C(=O)NC6(CCC(N)=O)CC6)N5C(=O)[C@@H](NC(=O)c5cc6cc(C(=O)P(=O)(O)O)ccc6[nH]5)C4)CC3)cc21 (some centres unmarked) [I-31],> 1000 nM
7,Cn1c(=O)n(C2CCC(=O)NC2=O)c2ccc(CCCCc3cccc(OC[C@H](CCC(N)=O)NC(=O)[C@@H]4CC[C@@H]5CCCC[C@H](NC(=O)c6cc7cc(C(=O)P(=O)(O)O)ccc7[nH]6)C(=O)N54)c3Cl)cc21 (some centres unmarked) [I-32],> 1000 nM
8,CC(C)c1ccc(CNC(=O)[C@H](CCC(N)=O)NC(=O)[C@@H]2CC[C@@H]3CCN(C(=O)[C@H]4CC[C@@H](CCc5ccc6c(c5)n(C)c(=O)n6C5CCC(=O)NC5=O)CC4)C[C@H](NC(=O)c4cc5cc(C(=O)P(=O)(O)O)ccc5[nH]4)C(=O)N32)c(F)c1 (some centres unmarked) [I-34],10 to 100 nM
9,"CC(C)c1ccc(CNC(=O)[C@H](CCC(N)=O)NC(=O)[C@@H]2CC[C@@H]3CCN(C(=O)[C@H]4CC[C@@H](CCc5ccc6c(c5)n(C)c(=O)n6C5CCC(=O)NC5=O)CC4)C[C@H](NC(=O)c4cc5cc(C(=O)P(=O)(O)O)ccc5[nH]4)C(=O)N32)c(Cl)c1 (stereo partly drawn) [I-35, 2-[[(5S,8S,10aR)-8-[[(1S)-3-Carbamoyl-1-[[(2-chloro-4-isopropylphenyl)methyl]carbamoyl]propyl]carbamoyl]-6-oxo-3-[(1r,4s)-4-[2-[1-(2,6-dioxopiperidin-3-yl)-3-methyl-2-oxo-1,3-benzodiazol-5-yl]ethyl]cyclohexanecarbonyl]-octahydropyrrolo[1,2-a][1,5]diazocin-5-yl]carbamoyl]-1H-indole-5-carbonylphosphonic acid]",10 to 100 nM
10,Cc1ncsc1-c1ccc([C@H](C)NC(=O)[C@@H]2C[C@@H](O)CN2C(=O)[C@@H](NC(=O)CCCCCc2cccc(OC[C@H](CCC(N)=O)NC(=O)[C@@H]3CC[C@@H]4CCN(C(=O)C[C@H]5CC[C@@H](Cc6ccc7c(c6)n(C)c(=O)n7C6CCC(=O)NC6=O)CC5)C[C@H](NC(=O)c5cc6cc(C(=O)P(=O)(O)O)ccc6[nH]5)C(=O)N43)c2F)C(C)(C)C)cc1 (some centres unmarked) [I-36],10 to 100 nM
11,Cn1c(=O)n(C2CCC(=O)NC2=O)c2ccc(CC[C@H]3CC[C@@H](C(=O)N4CC[C@H]5CC[C@@H](C(=O)N[C@@H](CCC(N)=O)c6nc7ccccc7s6)N5C(=O)[C@@H](NC(=O)c5cc6cc(C(=O)P(=O)(O)O)ccc6[nH]5)C4)CC3)cc21 (some centres unmarked) [I-37],10 to 100 nM
12,Cn1c(=O)n(C2CCC(=O)NC2=O)c2ccc(C[C@H]3CC[C@@H](CC(=O)N4CC[C@H]5CC[C@@H](C(=O)N[C@@H](CCC(N)=O)C(=O)NC6(c7ccc(S(C)(=O)=O)cc7)CC6)N5C(=O)[C@@H](NC(=O)c5cc6cc(C(=O)P(=O)(O)O)ccc6[nH]5)C4)CC3)cc21 (some centres unmarked) [I-38],100 to 1000 nM
13,Cn1c(=O)n(C2CCC(=O)NC2=O)c2ccc(CC[C@H]3CC[C@@H](C(=O)N4CC[C@H]5CC[C@@H](C(=O)N[C@@H](CCC(N)=O)c6ccccn6)N5C(=O)[C@@H](NC(=O)c5cc6cc(C(=O)P(=O)(O)O)ccc6[nH]5)C4)CC3)cc21 (some centres unmarked) [I-39],10 to 100 nM
14,C[C@@H](NC(=O)[C@H](CCC(N)=O)NC(=O)[C@@H]1CC[C@@H]2CCN(C(=O)C[C@H]3CC[C@@H](Cc4ccc5c(c4)n(C)c(=O)n5C4CCC(=O)NC4=O)CC3)C[C@H](NC(=O)c3cc4cc(C(=O)P(=O)(O)O)ccc4[nH]3)C(=O)N21)c1ccc(S(C)(=O)=O)cc1 (some centres unmarked) [I-40],100 to 1000 nM
15,C[C@H](NC(=O)[C@H](CCC(N)=O)NC(=O)[C@@H]1CC[C@@H]2CCN(C(=O)C[C@H]3CC[C@@H](Cc4ccc5c(c4)n(C)c(=O)n5C4CCC(=O)NC4=O)CC3)C[C@H](NC(=O)c3cc4cc(C(=O)P(=O)(O)O)ccc4[nH]3)C(=O)N21)c1ccc(S(C)(=O)=O)cc1 (some centres unmarked) [I-41],100 to 1000 nM
16,CC(=O)N1CC[C@H]2CC[C@@H](C(=O)N[C@@H](CCC(N)=O)COc3cccc(CCCC(=O)N[C@H](C(=O)N4C[C@@H](O)C[C@H]4C(=O)N[C@@H](C)c4ccc(-c5scnc5C)cc4)C(C)(C)C)c3Cl)N2C(=O)[C@@H](NC(=O)c2cc3cc(C(=O)P(=O)(O)O)ccc3[nH]2)C1 [I-42],> 1000 nM
17,CC(=O)N1CC[C@H]2CC[C@@H](C(=O)N[C@@H](CCC(N)=O)COc3cccc(CCCCC(=O)N[C@H](C(=O)N4C[C@@H](O)C[C@H]4C(=O)N[C@@H](C)c4ccc(-c5scnc5C)cc4)C(C)(C)C)c3Cl)N2C(=O)[C@@H](NC(=O)c2cc3cc(C(=O)P(=O)(O)O)ccc3[nH]2)C1 [I-43],> 1000 nM
18,Cn1c(=O)n(C2CCC(=O)NC2=O)c2ccc(C[C@H]3CC[C@@H](CC(=O)N4CC[C@H]5CC[C@@H](C(=O)N[C@@H](CCC(N)=O)C(=O)NCc6ccc(S(C)(=O)=O)cc6F)N5C(=O)[C@@H](NC(=O)c5cc6cc(C(=O)P(=O)(O)O)ccc6[nH]5)C4)CC3)cc21 (some centres unmarked) [I-44],10 to 100 nM
19,Cn1c(=O)n(C2CCC(=O)NC2=O)c2ccc(C[C@H]3CC[C@@H](CC(=O)N4CC[C@H]5CC[C@@H](C(=O)N[C@@H](CCC(N)=O)C(=O)NCc6ccc(S(C)(=O)=O)cc6Cl)N5C(=O)[C@@H](NC(=O)c5cc6cc(C(=O)P(=O)(O)O)ccc6[nH]5)C4)CC3)cc21 (some centres unmarked) [I-45],10 to 100 nM
20,Cn1c(=O)n(C2CCC(=O)NC2=O)c2ccc(NC[C@H]3CC[C@H](C(=O)N4CC[C@H]5CC[C@@H](C(=O)N[C@@H](CCC(N)=O)C(=O)NCc6ccc(S(C)(=O)=O)cc6)N5C(=O)[C@@H](NC(=O)c5cc6cc(C(=O)P(=O)(O)O)ccc6[nH]5)C4)CC3)cc21 (some centres unmarked) [I-47],10 to 100 nM
21,Cn1c(=O)n(C2CCC(=O)NC2=O)c2ccc(NC[C@H]3CC[C@@H](C(=O)N4CC[C@H]5CC[C@@H](C(=O)N[C@@H](CCC(N)=O)C(=O)NCc6ccc(S(C)(=O)=O)cc6)N5C(=O)[C@@H](NC(=O)c5cc6cc(C(=O)P(=O)(O)O)ccc6[nH]5)C4)CC3)cc21 (some centres unmarked) [I-48],10 to 100 nM
22,C[C@H](CCC(N)=O)NC(=O)[C@@H]1Cc2cc(CCCCCCc3ccc4c(c3)n(C)c(=O)n4C3CCC(=O)NC3=O)cc3c2N1C(=O)[C@@H](NC(=O)c1cc2cc(C(=O)P(=O)(O)O)ccc2[nH]1)CC3 (some centres unmarked) [I-49],10 to 100 nM
23,C[C@H](CCC(N)=O)NC(=O)[C@@H]1CC[C@@H]2CCN(C(=O)C[C@H]3CC[C@@H](Cc4ccc5c(c4)n(C)c(=O)n5C4CCC(=O)NC4=O)CC3)C[C@H](NC(=O)c3cc4cc(C(=O)P(=O)(O)O)ccc4[nH]3)C(=O)N21 (some centres unmarked) [I-50],100 to 1000 nM
24,Cn1c(=O)n(C2CCC(=O)NC2=O)c2ccc(C[C@H]3CC[C@@H](CC(=O)N4CC[C@H]5CC[C@@H](C(=O)N[C@@H](CCC(N)=O)COc6cccc(S(C)(=O)=O)c6)N5C(=O)[C@@H](NC(=O)c5cc6cc(C(=O)P(=O)(O)O)ccc6[nH]5)C4)CC3)cc21 (some centres unmarked) [I-51],10 to 100 nM

# Same assay, conditions: read-out: STAT3 HiBIT A549 degradation 24 h: Average external-Abs DC50, 24 h compound incubation
row,Compound,DC50
1,CC(C)c1ccc(CNC(=O)[C@H](CCC(N)=O)NC(=O)[C@@H]2CC[C@@H]3CCN(C(=O)[C@H]4CC[C@@H](CCc5ccc6c(c5)n(C)c(=O)n6C5CCC(=O)NC5=O)CC4)C[C@H](NC(=O)c4cc5cc(C(=O)P(=O)(O)O)ccc5[nH]4)C(=O)N32)cc1Cl (some centres unmarked) [I-33],10 to 100 nM
2,Cn1c(=O)n(C2CCC(=O)NC2=O)c2ccc(C[C@H]3CC[C@@H](CC(=O)N4CC[C@H]5CC[C@@H](C(=O)N[C@@H](CCC(N)=O)C(=O)NCc6ccc(S(C)(=O)=O)c(F)c6)N5C(=O)[C@@H](NC(=O)c5cc6cc(C(=O)P(=O)(O)O)ccc6[nH]5)C4)CC3)cc21 (some centres unmarked) [I-46],10 to 100 nM
